The compounds below were run against human GLP-1 receptor (Homo sapiens (Human), UniProt P43220). Settings: read-out: Mean EC50; cAMP, HTRF detection, 30 min at 37° C., HEK-293 cells expressing cloned human GLP-1 receptor.
Sequence of human GLP-1 receptor (P43220 24-463): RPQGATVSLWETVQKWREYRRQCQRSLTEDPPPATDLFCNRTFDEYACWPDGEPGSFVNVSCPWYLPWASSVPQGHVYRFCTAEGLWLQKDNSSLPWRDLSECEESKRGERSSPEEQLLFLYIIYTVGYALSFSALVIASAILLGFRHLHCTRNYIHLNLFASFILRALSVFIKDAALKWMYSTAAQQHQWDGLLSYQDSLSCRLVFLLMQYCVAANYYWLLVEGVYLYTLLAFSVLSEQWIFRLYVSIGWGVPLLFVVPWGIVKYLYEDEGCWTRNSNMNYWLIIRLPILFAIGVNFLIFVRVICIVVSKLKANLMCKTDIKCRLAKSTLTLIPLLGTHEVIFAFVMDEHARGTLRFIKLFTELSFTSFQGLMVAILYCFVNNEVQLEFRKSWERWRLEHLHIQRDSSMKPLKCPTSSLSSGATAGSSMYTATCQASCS

Question: How did the EC50 turn out when `CC[C@@H](c1ccccc1)N1Cc2cc3c(cc2C[C@H]1C(=O)N[C@@H](Cc1ccc(Oc2ccnc(C)c2C)cc1)C(=O)O)OC[C@H](c1ccc(OCc2ccc(Cl)c(Cl)c2)cc1)O3` [Example 189, (S)-2-{[(3S,8S)-3-[4-(3,4-Dichloro-benzyloxy)-phenyl]-7-((S)-1-phenyl-propyl)-2,3,6,7,8,9-hexahydro-[1,4]dioxino[2,3-g]isoquinoline-8-carbonyl]-amino}-3-[4-(2,3-dimethyl-pyridin-4-yloxy)-phenyl]-propionic acid] was run?
Answer: 31 nM

Question: With `CC[C@@H](c1ccccc1)N1Cc2cc3c(cc2C[C@H]1C(=O)N[C@@H](Cc1ccc(-c2cc(C)ncc2C)cc1)C(=O)O)OC[C@H](c1ccc(OCc2ccc(Cl)c(Cl)c2)cc1)O3` [Example 190, (S)-2-{[(3S,8S)-3-[4-(3,4-Dichloro-benzyloxy)-phenyl]-7-((S)-1-phenyl-propyl)-2,3,6,7,8,9-hexahydro-[1,4]dioxino[2,3-g]isoquinoline-8-carbonyl]-amino}-3-[4-(2,5-dimethyl-pyridin-4-yl)-phenyl]-propionic acid] as the compound, how does the EC50 read?
Answer: 11 nM

Question: With `CC[C@@H](c1ccccc1)N1Cc2cc3c(cc2C[C@H]1C(=O)N[C@@H](Cc1ccc(-c2ccnn2C)cc1)C(=O)O)OC[C@H](c1ccc(OCc2ccc(Cl)c(Cl)c2)cc1)O3` [Example 191, (S)-2-{[(3S,8S)-3-[4-(3,4-Dichloro-benzyloxy)-phenyl]-7-((S)-1-phenyl-propyl)-2,3,6,7,8,9-hexahydro-[1,4]dioxino[2,3-g]isoquinoline-8-carbonyl]-amino}-3-[4-(2-methyl-2H-pyrazol-3-yl)-phenyl]-propionic acid] as the compound, how does the EC50 read?
Answer: 66 nM

Question: With `CC[C@@H](c1ccccc1)N1Cc2cc3c(cc2C[C@H]1C(=O)N[C@@H](Cc1ccc(-c2ccnc(O)c2)cc1)C(=O)O)OC[C@H](c1ccc(OCc2ccc(Cl)c(Cl)c2)cc1)O3` [Example 195, (S)-2-{[(3S,8S)-3-[4-(3,4-Dichloro-benzyloxy)-phenyl]-7-((S)-1-phenyl-propyl)-2,3,6,7,8,9-hexahydro-[1,4]dioxino[2,3-g]isoquinoline-8-carbonyl]-amino}-3-[4-(2-hydroxy-pyridin-4-yl)-phenyl]-propionic acid] as the compound, how does the EC50 read?
Answer: 138 nM

Question: `CC[C@@H](c1ccccc1)N1Cc2cc3c(cc2C[C@H]1C(=O)N[C@@H](Cc1ccc(-c2ccc(C)nc2)cc1)C(=O)O)OC[C@H](c1ccc(OCc2ccc(Cl)c(Cl)c2)cc1)O3` [Example 196, (S)-2-{[(3S,8S)-3-[4-(3,4-Dichloro-benzyloxy)-phenyl]-7-((S)-1-phenyl-propyl)-2,3,6,7,8,9-hexahydro-[1,4]dioxino[2,3-g]isoquinoline-8-carbonyl]-amino}-3-[4-(6-methyl-pyridin-3-yl)-phenyl]-propionic acid] was tested. Which EC50 did it give?
Answer: 127 nM

Question: For `CC[C@@H](c1ccccc1)N1Cc2cc3c(cc2C[C@H]1C(=O)N[C@@H](Cc1ccc(-c2cnn(C)c2)cc1)C(=O)O)OC[C@H](c1ccc(OCc2ccc(Cl)c(Cl)c2)cc1)O3` [Example 197, (S)-2-{[(3S,8S)-3-[4-(3,4-Dichloro-benzyloxy)-phenyl]-7-((S)-1-phenyl-propyl)-2,3,6,7,8,9-hexahydro-[1,4]dioxino[2,3-g]isoquinoline-8-carbonyl]-amino}-3-[4-(1-methyl-1H-pyrazol-4-yl)-phenyl]-propionic acid], which EC50 is on record?
Answer: 262 nM

Question: `CC[C@@H](c1ccccc1)N1Cc2cc3c(cc2C[C@H]1C(=O)N[C@@H](Cc1ccc(-c2ccnc(CO)c2)cc1)C(=O)O)OC[C@H](c1ccc(OCc2ccc(Cl)c(Cl)c2)cc1)O3` [Example 206, (S)-2-{[(3S,8S)-3-[4-(3,4-Dichloro-benzyloxy)-phenyl]-7-((S)-1-phenyl-propyl)-2,3,6,7,8,9-hexahydro-[1,4]dioxino[2,3-g]isoquinoline-8-carbonyl]-amino}-3-[4-(2-hydroxymethyl-pyridin-4-yl)-phenyl]-propionic acid] was tested. Which EC50 did it give?
Answer: 61 nM

Question: Which EC50 does the source give for `CC[C@@H](c1ccccc1)N1Cc2cc3c(cc2C[C@H]1C(=O)N[C@@H](Cc1ccc(-c2ccnc(N)c2)cc1)C(=O)O)OC[C@H](c1ccc(OCc2ccc(Cl)c(Cl)c2)cc1)O3` [Example 208, (S)-3-[4-(2-Amino-pyridin-4-yl)-phenyl]-2-{[(3S,8S)-3-[4-(3,4-dichloro-benzyloxy)-phenyl]-7-((S)-1-phenyl-propyl)-2,3,6,7,8,9-hexahydro-[1,4]dioxino[2,3-g]isoquinoline-8-carbonyl]-amino}-propionic acid] here?
Answer: 72 nM

Question: How did the EC50 turn out when `CC[C@@H](c1ccccc1)N1Cc2cc3c(cc2C[C@H]1C(=O)N[C@@H](Cc1ccc(-c2ccnc4ccccc24)cc1)C(=O)O)OC[C@H](c1ccc(OCc2ccc(Cl)c(Cl)c2)cc1)O3` [Example 211, (S)-2-{[(3S,8S)-3-[4-(3,4-Dichloro-benzyloxy)-phenyl]-7-((S)-1-phenyl-propyl)-2,3,6,7,8,9-hexahydro-[1,4]dioxino[2,3-g]isoquinoline-8-carbonyl]-amino}-3-(4-quinolin-4-yl-phenyl)-propionic acid] was run?
Answer: 21 nM

Question: For `CC[C@@H](c1ccccc1)N1Cc2cc3c(cc2C[C@H]1C(=O)N[C@@H](Cc1ccc(-c2ccnc(CF)c2)cc1)C(=O)O)OC[C@H](c1ccc(OCc2ccc(Cl)c(Cl)c2)cc1)O3` [Example 212, (S)-2-{[(3S,8S)-3-[4-(3,4-Dichloro-benzyloxy)-phenyl]-7-((S)-1-phenyl-propyl)-2,3,6,7,8,9-hexahydro-[1,4]dioxino[2,3-g]isoquinoline-8-carbonyl]-amino}-3-[4-(2-fluoromethyl-pyridin-4-yl)-phenyl]-propionic acid], which EC50 is on record?
Answer: 34 nM

Question: With `Cc1nc(C(=O)N2Cc3cc4c(cc3C[C@H]2C(=O)N[C@@H](Cc2ccc(-c3ccnc(C)c3C)cc2)C(=O)O)OC[C@H](c2ccc(OCc3ccc(Cl)c(Cl)c3)cc2)O4)c(C)o1` [Example 216, (S)-2-{[(3S,8S)-3-[4-(3,4-Dichloro-benzyloxy)-phenyl]-7-(2,5-dimethyl-oxazole-4-carbonyl)-2,3,6,7,8,9-hexahydro-[1,4]dioxino[2,3-g]isoquinoline-8-carbonyl]-amino}-3-[4-(2,3-dimethyl-pyridin-4-yl)-phenyl]-propionic acid] as the compound, how does the EC50 read?
Answer: 17 nM

Question: Which EC50 does the source give for `Cc1nc(C(=O)N2Cc3cc4c(cc3C[C@H]2C(=O)N[C@@H](Cc2ccc(-c3ccnc(C)c3C)cc2)C(=O)O)OC[C@H](c2ccc(OCc3ccc(C)c(C)c3)cc2)O4)c(C)o1` [Example 217, (S)-2-{[(3S,8S)-3-[4-(3,4-Dimethyl-benzyloxy)-phenyl]-7-(2,5-dimethyl-oxazole-4-carbonyl)-2,3,6,7,8,9-hexahydro-[1,4]dioxino[2,3-g]isoquinoline-8-carbonyl]-amino}-3-[4-(2,3-dimethyl-pyridin-4-yl)-phenyl]-propionic acid] here?
Answer: 24 nM

Question: Which EC50 does the source give for `Cc1nc(C(=O)N2Cc3cc4c(cc3C[C@H]2C(=O)N[C@@H](Cc2ccc(-c3ccnc(C)c3C)cc2)C(=O)O)OC[C@H](c2ccc(OC[C@H]3CC[C@H](C)CC3)cc2)O4)c(C)o1` [Example 222, (S)-2-({(3S,8S)-7-(2,5-Dimethyl-oxazole-4-carbonyl)-3-[4-(trans-4-methyl-cyclohexyl-methoxy)-phenyl]-2,3,6,7,8,9-hexahydro-[1,4]dioxino[2,3-g]isoquinoline-8-carbonyl}-amino)-3-[4-(2,3-dimethyl-pyridin-4-yl)-phenyl]-propionic acid] here?
Answer: 75 nM

Source: US9175003B2, “Substituted azoanthracene derivatives and intermediates for preparation thereof” (TransTech Pharma, LLC, priority 2009, dated 2015)
